# Assay results taken from patent US12624018B1, “Inhibitors of RIPK2 and medical uses thereof” (Odyssey Therapeutics, Inc., priority 2022, dated 2026).
# Target: T1, RIPK2 enzyme (Homo sapiens, UniProt O43353)
# T1 construct: purchased Carna 09-128
# Experiment: RIPK2 inhibition (ADP-Glo Kinase Assay)
# Type: biochemical
# Conditions: RIPK2 5 nM, ATP 150 μM, MBP substrate, read-out: RIPK2 IC50
# Method in brief: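 Human RIPK2 (5 nM) preincubated with compound 30 min at room temperature in 50 mM HEPES pH 7.5, 10 mM MgCl2, 2 mM DTT, 1 mM EGTA, 0.01% Brij-35, 0.05% BSA; native swine MBP as substrate. ADP formed quantified by ADP-Glo luminescence; percent inhibition relative to DMSO and no-enzyme controls.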
# T1 sequence (O43353 1-299 limits assumed): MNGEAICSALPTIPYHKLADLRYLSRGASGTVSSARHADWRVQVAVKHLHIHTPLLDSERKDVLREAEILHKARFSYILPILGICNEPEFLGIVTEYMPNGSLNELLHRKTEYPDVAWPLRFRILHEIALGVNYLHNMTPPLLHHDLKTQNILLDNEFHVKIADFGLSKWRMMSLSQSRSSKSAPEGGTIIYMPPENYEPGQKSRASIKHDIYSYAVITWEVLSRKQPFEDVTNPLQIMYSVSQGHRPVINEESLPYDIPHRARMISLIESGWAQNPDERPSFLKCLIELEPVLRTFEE
row,Compound,IC50 [nM]
1,"CN1CCC(Cc2ccc3nccc(Oc4cnc(CC(=O)Nc5cnn(C(C)(C)C)c5)c(F)c4)c3c2)CC1 [Compound 139, N-(1-(tert-butyl)-1H-pyrazol-4-yl)-2-(3-fluoro-5-((6-((1-methylpiperidin-4-yl)methyl)quinolin-4-yl)oxy)pyridin-2-yl)acetamide]",3.2
2,"[2H]C([2H])([2H])n1nc(NC(=O)Cc2ccc(Oc3ccnc4ccc(S(C)(=O)=O)cc34)cc2F)cc1C(C)(C)C [Compound 142, N-(5-(tert-butyl)-1-(methyl-d3)-1H-pyrazol-3-yl)-2-(2-fluoro-4-((6-(methylsulfonyl)quinolin-4-yl)oxy)phenyl)acetamide]",< 2.5
3,"CC(C)c1cc(NC(=O)Cc2ccc(Oc3ccnc4ccc(S(C)(=O)=O)cc34)cc2F)n[nH]1 [Compound 143, 2-(2-fluoro-4-((6-(methylsulfonyl)quinolin-4-yl)oxy)phenyl)-N-(5-isopropyl-1H-pyrazol-3-yl)acetamide]",< 2.5
4,"CC(C)c1cc(NC(=O)Cc2ccc(Oc3ccnc4ccc(S(C)(=O)=O)cc34)cc2F)nn1C [Compound 144, 2-(2-fluoro-4-((6-(methylsulfonyl)quinolin-4-yl)oxy)phenyl)-N-(5-isopropyl-1-methyl-1H-pyrazol-3-yl)acetamide]",< 2.5
5,"CS(=O)(=O)c1ccc2nccc(Oc3ccc(CC(=O)Nc4cc(C5CC5)[nH]n4)c(F)c3)c2c1 [Compound 145, N-(5-cyclopropyl-1H-pyrazol-3-yl)-2-(2-fluoro-4-((6-(methylsulfonyl)quinolin-4-yl)oxy)phenyl)acetamide]",3.1
6,"Cn1nc(NC(=O)Cc2ccc(Oc3ccnc4ccc(S(C)(=O)=O)cc34)cc2F)cc1C1CC1 [Compound 146, N-(5-cyclopropyl-1-methyl-1H-pyrazol-3-yl)-2-(2-fluoro-4-((6-(methylsulfonyl)quinolin-4-yl)oxy)phenyl)acetamide]",< 2.5
7,"CCn1nc(NC(=O)Cc2ccc(Oc3ccnc4ccc(S(C)(=O)=O)cc34)cc2F)cc1C(C)(C)C [Compound 147, N-(5-(tert-butyl)-1-ethyl-1H-pyrazol-3-yl)-2-(2-fluoro-4-((6-(methylsulfonyl)quinolin-4-yl)oxy)phenyl)acetamide]",< 2.5
8,"CCn1nc(NC(=O)Cc2ccc(Oc3ccnc4ccc(S(C)(=O)=O)cc34)cc2F)cc1C(C)C [Compound 148, N-(1-ethyl-5-isopropyl-1H-pyrazol-3-yl)-2-(2-fluoro-4-((6-(methylsulfonyl)quinolin-4-yl)oxy)phenyl)acetamide]",< 2.5
9,"Cc1cc(CC(=O)Nc2cnn(C(C)(C)C)c2)ccc1Oc1ccnc2ccc(S(=O)(=O)C3CN(C)C3)cc12 [Compound 149, N-(1-(tert-butyl)-1H-pyrazol-4-yl)-2-(3-methyl-4-((6-((1-methylazetidin-3-yl)sulfonyl)quinolin-4-yl)oxy)phenyl)acetamide]",< 2.5
10,"CC(=O)N1CCC(Oc2ccc3nccc(Oc4cnc(CC(=O)Nc5cnn(C(C)(C)C)c5)c(F)c4)c3c2)CC1 [Compound 150, 2-(5-((6-((1-acetylpiperidin-4-yl)oxy)quinolin-4-yl)oxy)-3-fluoropyridin-2-yl)-N-(1-(tert-butyl)-1H-pyrazol-4-yl)acetamide]",4.1
11,"CC(=O)N1CCC(Oc2ccc3nccc(Oc4ccc(CC(=O)Nc5cnn(C(C)(C)C)c5)c(F)c4)c3c2)CC1 [Compound 151, 2-(4-((6-((1-acetyl-piperidin-4-yl)oxy)quinolin-4-yl)oxy)-2-fluoro-phenyl)-N-(1-(tert-butyl)-1H-pyrazol-4-yl)acetamide]",< 2.5
12,"CC(C)(C)n1cc(NC(=O)Cc2ccc(Oc3ccnc4ccc(N5CCCC5=O)cc34)cc2F)cn1 [Compound 152, N-(1-(tert-butyl)-1H-pyrazol-4-yl)-2-(2-fluoro-4-((6-(2-oxopyrrolidin-1-yl)quinolin-4-yl)oxy)phenyl) acetamide]",< 2.5
13,"CC(C)(C)n1cc(NC(=O)Cc2ccc(Oc3ccnc4ccc(N5CCCCC5=O)cc34)cc2F)cn1 [Compound 153, N-(1-(tert-butyl)-1H-pyrazol-4-yl)-2-(2-fluoro-4-((6-(2-oxopiperidin-1-yl)quinolin-4-yl)oxy)phenyl) acetamide]",2.7
14,"CC(C)(C)n1cc(NC(=O)Cc2ccc(Oc3ccnc4ccc(N5CCOCC5=O)cc34)cc2F)cn1 [Compound 154, N-(1-(tert-butyl)-1H-pyrazol-4-yl)-2-(2-fluoro-4-((6-(3-oxomorpholino)quinolin-4-yl)oxy)phenyl) acetamide]",< 2.5
15,"CC(C)(C)n1cc(NC(=O)Cc2ccc(Oc3ccnc4ccc(N5CCNCC5=O)cc34)cc2F)cn1 [Compound 155, N-(1-(tert-butyl)-1H-pyrazol-4-yl)-2-(2-fluoro-4-((6-(2-oxopiperazin-1-yl)quinolin-4-yl)oxy)phenyl) acetamide]",2.5
16,"CN1CCN(c2ccc3nccc(Oc4ccc(CC(=O)Nc5cnn(C(C)(C)C)c5)c(F)c4)c3c2)C(=O)C1 [Compound 156, N-(1-(tert-butyl)-1H-pyrazol-4-yl)-2-(2-fluoro-4-((6-(4-methyl-2-oxopiperazin-1-yl)quinolin-4-yl)oxy)phenyl) acetamide]",4.5

row,Compound,IC50 [nM]
1,"CC(C)(C)n1cc(NC(=O)Cc2ccc(Oc3ccnc4ccc(-n5ccccc5=O)cc34)cc2F)cn1 [Compound 157, N-(1-(tert-butyl)-1H-pyrazol-4-yl)-2-(2-fluoro-4-((6-(2-oxopyridin-1(2H)-yl)quinolin-4-yl)oxy)phenyl) acetamide]",5.2
2,"CC(C)(C)n1cc(NC(=O)Cc2ccc(Oc3ncnc4ccc(OC5CCNCC5)cc34)c(Cl)c2)cn1 [Compound 158, N-(1-(tert-butyl)-1H-pyrazol-4-yl)-2-(3-chloro-4-((6-(piperidin-4-yloxy)quinazolin-4-yl)oxy)phenyl) acetamide]",< 2.5
3,"CN1CCC(Oc2ccc3ncnc(Oc4ccc(CC(=O)Nc5cnn(C(C)(C)C)c5)cc4Cl)c3c2)CC1 [Compound 159, N-(1-(tert-butyl)-1H-pyrazol-4-yl)-2-(3-chloro-4-((6-((1-methyl-piperidin-4-yl)oxy)quinazolin-4-yl)oxy)phenyl) acetamide]",< 2.5
4,"CCN1CCC(Oc2ccc3ncnc(Oc4ccc(CC(=O)Nc5cnn(C(C)(C)C)c5)cc4Cl)c3c2)CC1 [Compound 160, N-(1-(tert-butyl)-1H-pyrazol-4-yl)-2-(3-chloro-4-((6-((1-ethyl-piperidin-4-yl)oxy)quinazolin-4-yl)oxy)phenyl) acetamide]",< 2.5
5,"CC(C)(C)n1cc(NC(=O)Cc2ccc(Oc3ccnc4ccc(OC5CCNCC5)cc34)c(F)c2)cn1 [Compound 161, N-(1-(tert-butyl)-1H-pyrazol-4-yl)-2-(3-fluoro-4-((6-(piperidin-4-yloxy)quinolin-4-yl)oxy)phenyl) acetamide]",< 2.5
6,"CN1CCC(Oc2ccc3nccc(Oc4ccc(CC(=O)Nc5cnn(C(C)(C)C)c5)cc4F)c3c2)CC1 [Compound 162, N-(1-(tert-butyl)-1H-pyrazol-4-yl)-2-(3-fluoro-4-((6-((1-methyl-piperidin-4-yl)oxy)quinolin-4-yl)oxy)phenyl) acetamide]",< 2.5
7,"CC(C)(C)n1cc(NC(=O)Cc2ccc(Oc3ccnc4ccc(S(C)(=O)=O)cc34)c(F)c2)cn1 [Compound 163, N-(1-(tert-butyl)-1H-pyrazol-4-yl)-2-(3-fluoro-4-((6-(methylsulfonyl)quinolin-4-yl)oxy)phenyl)acetamide]",< 2.5
8,"CCS(=O)(=O)c1ccc2nccc(Oc3ccc(CC(=O)Nc4cnn(C(C)(C)C)c4)cc3F)c2c1 [Compound 164, N-(1-(tert-butyl)-1H-pyrazol-4-yl)-2-(4-((6-(ethylsulfonyl)quinolin-4-yl)oxy)-3-fluorophenyl)acetamide]",< 2.5
9,"CC(C)(C)n1cc(NC(=O)Cc2ccc(Oc3ccnc4ccc(OC5CCNCC5)cc34)c(F)c2F)cn1 [Compound 165, N-(1-(tert-butyl)-1H-pyrazol-4-yl)-2-(2,3-difluoro-4-((6-(piperidin-4-yloxy)quinolin-4-yl)oxy)phenyl) acetamide]",< 2.5
10,"CN1CCC(Oc2ccc3nccc(Oc4ccc(CC(=O)Nc5cnn(C(C)(C)C)c5)c(F)c4F)c3c2)CC1 [Compound 166, N-(1-(tert-butyl)-1H-pyrazol-4-yl)-2-(2,3-difluoro-4-((6-((1-methyl-piperidin-4-yl)oxy)quinolin-4-yl)oxy)phenyl) acetamide]",< 2.5
11,"CC(C)(C)n1cc(NC(=O)Cc2ccc(Oc3ccnc4ccc(S(C)(=O)=O)cc34)c(F)c2F)cn1 [Compound 167, N-(1-(tert-butyl)-1H-pyrazol-4-yl)-2-(2,3-difluoro-4-((6-(methylsulfonyl)quinolin-4-yl)oxy)phenyl)acetamide]",< 2.5
12,"CCS(=O)(=O)c1ccc2nccc(Oc3ccc(CC(=O)Nc4cnn(C(C)(C)C)c4)c(F)c3F)c2c1 [Compound 168, N-(1-(tert-butyl)-1H-pyrazol-4-yl)-2-(4-((6-(ethylsulfonyl)quinolin-4-yl)oxy)-2,3-difluorophenyl)acetamide]",< 2.5
13,"CC(C)(C)n1cc(NC(=O)Cc2ccc(Oc3ncnc4ccc(OC5CCNCC5)cc34)c(F)c2F)cn1 [Compound 169, N-(1-(tert-butyl)-1H-pyrazol-4-yl)-2-(2,3-difluoro-4-((6-(piperidin-4-yloxy)quinazolin-4-yl)oxy)phenyl) acetamide]",< 2.5
14,"CN1CCC(Oc2ccc3ncnc(Oc4ccc(CC(=O)Nc5cnn(C(C)(C)C)c5)c(F)c4F)c3c2)CC1 [Compound 170, N-(1-(tert-butyl)-1H-pyrazol-4-yl)-2-(2,3-difluoro-4-((6-((1-methyl-piperidin-4-yl)oxy)quinazolin-4-yl)oxy)phenyl) acetamide]",< 2.5
15,"CC(C)(C)n1cc(NC(=O)Cc2ccc(Oc3ccnc4ccc(OC5CCNCC5)cc34)c(Cl)c2)cn1 [Compound 171, N-(1-(tert-butyl)-1H-pyrazol-4-yl)-2-(3-chloro-4-((6-(piperidin-4-yloxy)quinolin-4-yl)oxy)phenyl) acetamide]",< 2.5
